Data taken from patent US12295936B2, “Immunomodulating urea azalides” (Zoetis Services LLC, priority 2020, dated 2025).

Legend:
TNF-α = test: LPS-stimulated whole bovine blood assay, MSD cytokine detection; type: cell-based; conditions: Bos taurus, LPS-stimulated bovine whole blood; read-out: TNF-α (IC50 μM)
IL-1β = test: as above; type: cell-based; conditions: overstimulation of IL-1β, LPS-stimulated bovine whole blood
[1] = test system: BRD pathogens, M. haemolytica and P. multocida; test: MIC screening panel of BRD pathogens (antibacterial / non-antibacterial); conditions: read-out: antibacterial / non-antibacterial (MIC for the BRD pathogens)
IL-6 = test: LPS-stimulated whole bovine blood assay, MSD cytokine detection; type: cell-based; conditions: Bos taurus, LPS-stimulated bovine whole blood; read-out: IL-6 (IC50 μM)
Text: In order to correlate RNA sequencing data to cytokine changes the whole blood assay was utilized. […] The enhancement result represents an overall stimulation of cytokine levels due to cellular stress or potential toxicity with increasing concentrations of the compound, representing a typical bell shape response curve for immunomodulatory activity.

Structure (SMILES) | IC50 (TNF-α) [µM] | IC50 (IL-6) [µM] | IL-1β OS of LPS (IL-1β) [µM] | MIC [1] [µg/mL]
CC[C@H]1OC(=O)[C@H](C)[C@@H](O[C@H]2C[C@@](C)(OC)[C@](O)(CNCCCn3ccnc3)[C@H](C)O2)[C@H](C)[C@@H](O[C@@H]2O[C@H](C)C[C@H](N(C)C(=O)N(C)c3ccccc3)[C@H]2O)[C@](C)(O)C[C@@H](C)CN[C@H](C)[C@@H](O)[C@]1(C)O [Example H-25, 1-((2S,3R,4S,6R)-2-(((2R,3S,4R,5R,8R,10R,11R,12S,13S,14R)-13-(((2R,4R,5S,6S)-5-(((3-(1H-imidazol-1-yl)propyl)amino)methyl)-5-hydroxy-4-methoxy-4,6-dimethyltetrahydro-2H-pyran-2-yl)oxy)-2-ethyl-3,4,10-trihydroxy-3,5,8,10,12,14-hexamethyl-15-oxo-1-oxa-6-azacyclopentadecan-11-yl)oxy)-3-hydroxy-6-methyltetrahydro-2H-pyran-4-yl)-1,3-dimethyl-3-phenylurea] | 19 | 22 | 16 | > 64
CC[C@H]1OC(=O)[C@H](C)[C@@H](O[C@H]2C[C@@](C)(OC)[C@](O)(CNC3CC3)[C@H](C)O2)[C@H](C)[C@@H](O[C@@H]2O[C@H](C)C[C@H](N(C)C(=O)N(C)c3ccccc3)[C@H]2O)[C@](C)(O)C[C@@H](C)CN[C@H](C)[C@@H](O)[C@]1(C)O [Example H-27, 1-((2S,3R,4S,6R)-2-(((2R,3S,4R,5R,8R,10R,11R,12S,13S,14R)-13-(((2R,4R,5S,6S)-5-((cyclopropylamino)methyl)-5-hydroxy-4-methoxy-4,6-dimethyltetrahydro-2H-pyran-2-yl)oxy)-2-ethyl-3,4,10-trihydroxy-3,5,8,10,12,14-hexamethyl-15-oxo-1-oxa-6-azacyclopentadecan-11-yl)oxy)-3-hydroxy-6-methyltetrahydro-2H-pyran-4-yl)-1,3-dimethyl-3-phenylurea] | 8 | 17 | 16 | > 64
CCCCNC[C@]1(O)[C@H](C)O[C@@H](O[C@H]2[C@H](C)[C@@H](O[C@@H]3O[C@H](C)C[C@H](N(C)C(=O)N(C)c4ccccc4)[C@H]3O)[C@](C)(O)C[C@@H](C)CN[C@H](C)[C@@H](O)[C@](C)(O)[C@@H](CC)OC(=O)[C@@H]2C)C[C@@]1(C)OC [Example H-28, 1-((2S,3R,4S,6R)-2-(((2R,3S,4R,5R,8R,10R,11R,12S,13S,14R)-13-(((2R,4R,5S,6S)-5-((butylamino)methyl)-5-hydroxy-4-methoxy-4,6-dimethyltetrahydro-2H-pyran-2-yl)oxy)-2-ethyl-3,4,10-trihydroxy-3,5,8,10,12,14-hexamethyl-15-oxo-1-oxa-6-azacyclopentadecan-11-yl)oxy)-3-hydroxy-6-methyltetrahydro-2H-pyran-4-yl)-1,3-dimethyl-3-phenylurea] | 13 | 8 | 17 | > 64
CC[C@H]1OC(=O)[C@H](C)[C@@H](O[C@H]2C[C@@](C)(OC)[C@](O)(CNCCC(C)C)[C@H](C)O2)[C@H](C)[C@@H](O[C@@H]2O[C@H](C)C[C@H](N(C)C(=O)N(C)c3ccccc3)[C@H]2O)[C@](C)(O)C[C@@H](C)CN[C@H](C)[C@@H](O)[C@]1(C)O [Example H-29, 1-((2S,3R,4S,6R)-2-(((2R,3S,4R,5R,8R,10R,11R,12S,13S,14R)-2-ethyl-3,4,10-trihydroxy-13-(((2R,4R,5S,6S)-5-hydroxy-5-((isopentylamino)methyl)-4-methoxy-4,6-dimethyltetrahydro-2H-pyran-2-yl)oxy)-3,5,8,10,12,14-hexamethyl-15-oxo-1-oxa-6-azacyclopentadecan-11-yl)oxy)-3-hydroxy-6-methyltetrahydro-2H-pyran-4-yl)-1,3-dimethyl-3-phenylurea] | 50 | 50 | 3 | > 64
CC[C@H]1OC(=O)[C@H](C)[C@@H](O[C@H]2C[C@@](C)(OC)[C@](O)(CNCC3CCN(C(C)=O)CC3)[C@H](C)O2)[C@H](C)[C@@H](O[C@@H]2O[C@H](C)C[C@H](N(C)C(=O)N(C)c3ccccc3)[C@H]2O)[C@](C)(O)C[C@@H](C)CN[C@H](C)[C@@H](O)[C@]1(C)O [Example H-31, 1-((2S,3R,4S,6R)-2-(((2R,3S,4R,5R,8R,10R,11R,12S,13S,14R)-13-(((2R,4R,5S,6S)-5-((((1-acetylpiperidin-4-yl)methyl)amino)methyl)-5-hydroxy-4-methoxy-4,6-dimethyltetrahydro-2H-pyran-2-yl)oxy)-2-ethyl-3,4,10-trihydroxy-3,5,8,10,12,14-hexamethyl-15-oxo-1-oxa-6-azacyclopentadecan-11-yl)oxy)-3-hydroxy-6-methyltetrahydro-2H-pyran-4-yl)-1,3-dimethyl-3-phenylurea] | 41 | 41 | 81 | > 64

More lines, main results first:

IC50 (TNF-α) [µM] | IC50 (IL-6) [µM] | Structure (SMILES) | IL-1β OS of LPS (IL-1β) [µM] | MIC [1] [µg/mL]
11 | 8 | CC[C@H]1OC(=O)[C@H](C)[C@@H](O[C@H]2C[C@@](C)(OC)[C@](O)(CNc3ccccc3)[C@H](C)O2)[C@H](C)[C@@H](O[C@@H]2O[C@H](C)C[C@H](N(C)C(=O)N(C)c3ccccc3)[C@H]2O)[C@](C)(O)C[C@@H](C)CN[C@H](C)[C@@H](O)[C@]1(C)O [Example H-32, 1-((2S,3R,4S,6R)-2-(((2R,3S,4R,5R,8R,10R,11R,12S,13S,14R)-2-ethyl-3,4,10-trihydroxy-13-(((2R,4R,5S,6S)-5-hydroxy-4-methoxy-4,6-dimethyl-5-((phenylamino)methyl)tetrahydro-2H-pyran-2-yl)oxy)-3,5,8,10,12,14-hexamethyl-15-oxo-1-oxa-6-azacyclopentadecan-11-yl)oxy)-3-hydroxy-6-methyltetrahydro-2H-pyran-4-yl)-1,3-dimethyl-3-phenylurea] | 44 | > 64
37 | 57 | CC[C@H]1OC(=O)[C@H](C)[C@@H](O[C@H]2C[C@@](C)(OC)[C@](O)(CNCCC3CCOCC3)[C@H](C)O2)[C@H](C)[C@@H](O[C@@H]2O[C@H](C)C[C@H](N(C)C(=O)N(C)c3ccccc3)[C@H]2O)[C@](C)(O)C[C@@H](C)CN[C@H](C)[C@@H](O)[C@]1(C)O [Example H-33, 1-((2S,3R,4S,6R)-2-(((2R,3S,4R,5R,8R,10R,11R,12S,13S,14R)-2-ethyl-3,4,10-trihydroxy-13-(((2R,4R,5S,6S)-5-hydroxy-4-methoxy-4,6-dimethyl-5-(((2-(tetrahydro-2H-pyran-4-yl)ethyl)amino)methyl)tetrahydro-2H-pyran-2-yl)oxy)-3,5,8,10,12,14-hexamethyl-15-oxo-1-oxa-6-azacyclopentadecan-11-yl)oxy)-3-hydroxy-6-methyltetrahydro-2H-pyran-4-yl)-1,3-dimethyl-3-phenylurea] | 6 | > 64
8 | 12 | CC[C@H]1OC(=O)[C@H](C)[C@@H](O[C@H]2C[C@@](C)(OC)[C@](O)(CN(C)C3CCC3)[C@H](C)O2)[C@H](C)[C@@H](O[C@@H]2O[C@H](C)C[C@H](N(C)C(=O)N(C)c3ccccc3)[C@H]2O)[C@](C)(O)C[C@@H](C)CN[C@H](C)[C@@H](O)[C@]1(C)O [Example H-37, 1-((2S,3R,4S,6R)-2-(((2R,3S,4R,5R,8R,10R,11R,12S,13S,14R)-13-(((2R,4R,5S,6S)-5-((cyclobutyl(methyl)amino)methyl)-5-hydroxy-4-methoxy-4,6-dimethyltetrahydro-2H-pyran-2-yl)oxy)-2-ethyl-3,4,10-trihydroxy-3,5,8,10,12,14-hexamethyl-15-oxo-1-oxa-6-azacyclopentadecan-11-yl)oxy)-3-hydroxy-6-methyltetrahydro-2H-pyran-4-yl)-1,3-dimethyl-3-phenylurea] | 40 | > 64
34 | 29 | CC[C@H]1OC(=O)[C@H](C)[C@@H](O[C@H]2C[C@@](C)(OC)[C@](O)(CNCCS(=O)(=O)c3ccccc3)[C@H](C)O2)[C@H](C)[C@@H](O[C@@H]2O[C@H](C)C[C@H](N(C)C(=O)N(C)c3ccccc3)[C@H]2O)[C@](C)(O)C[C@@H](C)CN[C@H](C)[C@@H](O)[C@]1(C)O [Example H-43, 1-((2S,3R,4S,6R)-2-(((2R,3S,4R,5R,8R,10R,11R,12S,13S,14R)-2-ethyl-3,4,10-trihydroxy-13-(((2R,4R,5S,6S)-5-hydroxy-4-methoxy-4,6-dimethyl-5-(((2-(phenylsulfonyl)ethyl)amino)methyl)tetrahydro-2H-pyran-2-yl)oxy)-3,5,8,10,12,14-hexamethyl-15-oxo-1-oxa-6-azacyclopentadecan-11-yl)oxy)-3-hydroxy-6-methyltetrahydro-2H-pyran-4-yl)-1,3-dimethyl-3-phenylurea] | 16 | > 64
26 | 52 | CCCNC[C@]1(O)[C@H](C)O[C@@H](O[C@H]2[C@H](C)[C@@H](O[C@@H]3O[C@H](C)C[C@H](N(C)C(=O)N(C)c4ncc(Cl)cn4)[C@H]3O)[C@](C)(O)C[C@@H](C)CN[C@H](C)[C@@H](O)[C@](C)(O)[C@@H](CC)OC(=O)[C@@H]2C)C[C@@]1(C)OC [Example H-51, 1-(5-chloropyrimidin-2-yl)-3-((2S,3R,4S,6R)-2-(((2R,3S,4R,5R,8R,10R,11R,12S,13S,14R)-2-ethyl-3,4,10-trihydroxy-13-(((2R,4R,5S,6S)-5-hydroxy-4-methoxy-4,6-dimethyl-5-((propylamino)methyl)tetrahydro-2H-pyran-2-yl)oxy)-3,5,8,10,12,14-hexamethyl-15-oxo-1-oxa-6-azacyclopentadecan-11-yl)oxy)-3-hydroxy-6-methyltetrahydro-2H-pyran-4-yl)-1,3-dimethylurea] | 40 | > 64
